Results on 28 compounds are retold here after patent publication US10722514B2 (FLX Bio, Inc., priority 2017, dated 2020).

For this assay, the target named is T1, recombinant full-length USP7 (Homo sapiens, UniProt Q93009).
T1 construct: A 25 μl reaction volume containing recombinant full-length USP7 (62 pM)
The assay can be described thus: USP7-mediated ubiquitin-rhodamine cleavage assay. Type of assay: biochemical. The settings on record: recombinant full-length USP7 62 pM; ubiquitin-rhodamine 100 nM; 30-minute incubation with compound, 1 hour reaction at room temperature; read-out: Potency: USP7 IC50. The method, boiled down: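 Full-length recombinant USP7 (62 pM) in 20 mM HEPES pH 7.3, 150 mM NaCl, 1 mM TCEP, 125 μg/ml BSA, 1% DMSO, preincubated with compound 30 min at RT. Ubiquitin-rhodamine (100 nM final) cleaved 1 h at RT in the dark, stopped with acetic acid; rhodamine fluorescence read, IC50 by 4-parameter nonlinear fit.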

T1 sequence (Q93009 whole entry): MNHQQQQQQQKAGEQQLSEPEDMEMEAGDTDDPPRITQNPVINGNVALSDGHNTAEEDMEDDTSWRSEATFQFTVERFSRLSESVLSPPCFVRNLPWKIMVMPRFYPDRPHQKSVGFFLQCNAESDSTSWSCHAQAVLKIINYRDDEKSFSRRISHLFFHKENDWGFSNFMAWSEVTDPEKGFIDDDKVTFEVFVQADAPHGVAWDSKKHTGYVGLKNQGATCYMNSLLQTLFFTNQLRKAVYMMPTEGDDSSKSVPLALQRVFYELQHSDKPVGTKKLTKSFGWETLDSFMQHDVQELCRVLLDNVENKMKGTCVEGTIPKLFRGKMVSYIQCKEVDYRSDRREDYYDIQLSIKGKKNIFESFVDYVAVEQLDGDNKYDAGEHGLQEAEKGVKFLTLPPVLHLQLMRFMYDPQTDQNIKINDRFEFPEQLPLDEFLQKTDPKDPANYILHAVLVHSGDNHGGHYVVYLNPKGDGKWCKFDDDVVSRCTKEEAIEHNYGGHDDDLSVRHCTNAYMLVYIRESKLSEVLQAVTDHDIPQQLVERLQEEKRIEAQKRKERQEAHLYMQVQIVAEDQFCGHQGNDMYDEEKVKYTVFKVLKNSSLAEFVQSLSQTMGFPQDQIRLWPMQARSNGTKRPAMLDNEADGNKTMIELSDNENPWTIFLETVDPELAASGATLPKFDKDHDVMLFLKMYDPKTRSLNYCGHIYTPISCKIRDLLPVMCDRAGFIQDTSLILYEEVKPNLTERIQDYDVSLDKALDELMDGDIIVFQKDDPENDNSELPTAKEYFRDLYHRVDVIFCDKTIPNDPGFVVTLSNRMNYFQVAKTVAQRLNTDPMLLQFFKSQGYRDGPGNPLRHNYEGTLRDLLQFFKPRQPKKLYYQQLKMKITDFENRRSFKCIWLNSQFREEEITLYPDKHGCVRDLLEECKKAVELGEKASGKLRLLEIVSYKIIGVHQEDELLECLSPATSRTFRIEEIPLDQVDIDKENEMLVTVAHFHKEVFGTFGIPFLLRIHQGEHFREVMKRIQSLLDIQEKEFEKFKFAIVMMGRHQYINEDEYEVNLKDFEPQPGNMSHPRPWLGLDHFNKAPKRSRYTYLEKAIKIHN

The IC50 is the point on the concentration scale where inhibition reaches its midpoint. Consider `CC(=O)NCc1cc2nccc(-c3cc(Cl)cc(C)c3O[C@@H]3CNC[C@@H]3F)c2s1` [Example 91, N-((7-(5-Chloro-2-(((3R,4S)-4-fluoropyrrolidin-3-yl)oxy)-3-methylphenyl)thieno[3,2-b]pyridin-2-yl)methyl)acetamide], for which the IC50 is < 1000 nM. For the compound `Cc1cc(Cl)cc(-c2ccnc3cc(CO)sc23)c1O[C@@H]1CCC[C@H]1N(C)C` [Example 92, (7-(5-Chloro-2-(((1R,2R)-2-(dimethylamino)cyclopentyl)oxy)-3-methylphenyl)thieno[3,2-b]pyridin-2-yl)methanol], the IC50 was > 30000 nM. With `Cc1cc(Cl)cc(-c2ccnc3cc(CO)sc23)c1O[C@@H]1CC[C@@H](N(C)C)C1` [Example 93, (7-(5-Chloro-2-(((1R,3R)-3-(dimethylamino)cyclopentyl)oxy)-3-methylphenyl)thieno[3,2-b]pyridin-2-yl)methanol] the figure was 10000 to 30000 nM; with `CCC(O)c1cc2ncnc(-c3cc(Cl)cc(C)c3O[C@@H]3CNC[C@@H]3F)c2s1` (stereo partly drawn) [Example 94, 1-(4-(5-Chloro-2-(((3R,4S)-4-fluoropyrrolidin-3-yl)oxy)-3-methylphenyl)thieno[3,2-d]pyrimidin-6-yl)propan-1-ol], 1000 to 10000 nM; with `CCC(O)c1cc2ncnc(-c3cc(C#N)cc(C)c3O[C@@H]3CNC[C@@H]3F)c2s1` (stereo partly drawn) [Example 95, 4-(((3R,4S)-4-Fluoropyrrolidin-3-yl)oxy)-3-(6-(1-hydroxypropyl)thieno[3,2-d]pyrimidin-4-yl)-5-methylbenzonitrile], < 1000 nM. With `Cc1cc(C#N)cc(-c2ccnc3cc(CN4C(=O)CCC4=O)sc23)c1O[C@@H]1CNC[C@@H]1F` [Example 97, 3-(2-((2,5-Dioxopyrrolidin-1-yl)methyl)thieno[3,2-b]pyridin-7-yl)-4-(((3R,4S)-4-fluoropyrrolidin-3-yl)oxy)-5-methylbenzonitrile], the IC50 is < 1000 nM.

As for `Cc1cc(Cl)cc(-c2ccnc3cc(CN4C(=O)CCC4=O)sc23)c1O[C@@H]1CNC[C@@H]1CO` [Example 98, 1-((7-(5-Chloro-2-(((3S,4R)-4-(hydroxymethyl)pyrrolidin-3-yl)oxy)-3-methylphenyl)thieno[3,2-b]pyridin-2-yl)methyl)pyrrolidine-2,5-dione], the IC50 was < 1000 nM. Then `Cc1cc(Cl)cc(-c2ccnc3cc(CN4C(=O)CCC4=O)sc23)c1O[C@@H]1CN[C@@H](C)C1` [Example 99, 1-((7-(5-Chloro-3-methyl-2-(((3S,5S)-5-methylpyrrolidin-3-yl)oxy)phenyl)thieno[3,2-b]pyridin-2-yl)methyl)pyrrolidine-2,5-dione], with < 1000 nM. Regarding `Cc1cc(Cl)cc(-c2ccnc3cc(CN4C(=O)CCC4=O)ccc23)c1O[C@@H]1CNC[C@@H]1F` [Example 100, 1-((4-(5-Chloro-2-(((3R,4S)-4-fluoropyrrolidin-3-yl)oxy)-3-methylphenyl)quinolin-7-yl)methyl)pyrrolidine-2,5-dione], the IC50 fell in the range of 10000 to 30000 nM. Then `Cc1cc(Cl)cc(-c2ccnc3cc(CN4C(=O)CCC4=O)sc23)c1O[C@@H]1CN[C@@H](CF)C1` [Example 101, 1-((7-(5-Chloro-2-(((3S,5R)-5-(fluoromethyl)pyrrolidin-3-yl)oxy)-3-methylphenyl)thieno[3,2-b]pyridin-2-yl)methyl)pyrrolidine-2,5-dione], with < 1000 nM; and `O=C1CCC(=O)N1Cc1cc2nccc(-c3cc(Cl)cc(Br)c3O[C@@H]3CNC[C@@H]3F)c2s1` [Example 102, 1-((7-(3-Bromo-5-chloro-2-(((3R,4S)-4-fluoropyrrolidin-3-yl)oxy)phenyl)thieno[3,2-b]pyridin-2-yl)methyl)pyrrolidine-2,5-dione], with < 1000 nM; and `Cc1cc(Cl)cc(-c2ccnc3cc(CN4C(=O)CCCC4C(F)(F)F)sc23)c1O[C@@H]1CNC[C@@H]1F` (stereo partly drawn) [Example 103, 1-((7-(5-Chloro-2-(((3R,4S)-4-fluoropyrrolidin-3-yl)oxy)-3-methylphenyl)thieno[3,2-b]pyridin-2-yl)methyl)-6-(trifluoromethyl)piperidin-2-one], with 1000 to 10000 nM. Turning to `Cc1cc(Cl)cc(-c2ccnc3cc(CN4C(=O)CCC4=O)sc23)c1O[C@@H]1CNC[C@H]1F` [Example 104, 1-((7-(5-Chloro-2-(((3R,4R)-4-fluoropyrrolidin-3-yl)oxy)-3-methylphenyl)thieno[3,2-b]pyridin-2-yl)methyl)pyrrolidine-2,5-dione], the IC50 was < 1000 nM. As for `Cc1cc(Cl)cc(-c2ccnc3cc(CN4C(=O)CCC4=O)sc23)c1O[C@@H]1CNC[C@@H]1C` [Example 105, 1-((7-(5-Chloro-3-methyl-2-(((3S,4S)-4-methylpyrrolidin-3-yl)oxy)phenyl)thieno[3,2-b]pyridin-2-yl)methyl)pyrrolidine-2,5-dione], the half-inhibitory concentration (IC50) was < 1000 nM. As for `CO[C@H]1CNC[C@H]1Oc1c(C)cc(Cl)cc1-c1ccnc2cc(CN3C(=O)CCC3=O)sc12` [Example 106, 1-((7-(5-Chloro-2-(((3R,4S)-4-methoxypyrrolidin-3-yl)oxy)-3-methylphenyl)thieno[3,2-b]pyridin-2-yl)methyl)pyrrolidine-2,5-dione], the IC50 was < 1000 nM.

In the case of `Cc1cc(Cl)cc(-c2ccnc3cc(CNS(C)(=O)=O)sc23)c1O[C@@H]1CNC[C@@H]1F` [Example 107, N-((7-(5-Chloro-2-(((3R,4S)-4-fluoropyrrolidin-3-yl)oxy)-3-methylphenyl)thieno[3,2-b]pyridin-2-yl)methyl)methanesulfonamide], the half-inhibitory concentration (IC50) was 1000 to 10000 nM. For `Cc1cc(Cl)cc(-c2ccnc3cc(CN4C(=O)CCC4=O)sc23)c1O[C@@H]1CNC[C@@H]1CF` [Example 108, 1-((7-(5-Chloro-2-(((3S,4S)-4-(fluoromethyl)pyrrolidin-3-yl)oxy)-3-methylphenyl)thieno[3,2-b]pyridin-2-yl)methyl)pyrrolidine-2,5-dione], the 50% inhibitory concentration (IC50) was < 1000 nM. Then `Cc1cc(C#N)cc(-c2ncnc3cc(CN4C(=O)CCC4=O)sc23)c1O[C@@H]1CNC[C@@H]1F` [Example 109, 3-(6-((2,5-Dioxopyrrolidin-1-yl)methyl)thieno[3,2-d]pyrimidin-4-yl)-4-(((3R,4S)-4-fluoropyrrolidin-3-yl)oxy)-5-methylbenzonitrile], with < 1000 nM; and `Cc1cc(C#N)cc(-c2ncnc3cc(CN4C(=O)c5ccccc5C4=O)sc23)c1O[C@@H]1CNC[C@@H]1F` [Example 110, 3-(6-((1,3-Dioxoisoindolin-2-yl)methyl)thieno[3,2-d]pyrimidin-4-yl)-4-(((3R,4S)-4-fluoropyrrolidin-3-yl)oxy)-5-methylbenzonitrile], with < 1000 nM.

As to `Cc1cc(Cl)cc(-c2ccnc3cc(CN4C(=O)CCC4=O)sc23)c1O[C@@H]1CNC[C@@H]1C(F)F` [Example 111, 1-((7-(5-Chloro-2-(((3S,4S)-4-(difluoromethyl)pyrrolidin-3-yl)oxy)-3-methylphenyl)thieno[3,2-b]pyridin-2-yl)methyl)pyrrolidine-2,5-dione], the IC50 was < 1000 nM.

For the compound `Cc1cc(C#N)cc(-c2ccnc3cc(CN4C(=O)C5C6CCC(C6)C5C4=O)sc23)c1O[C@@H]1CNC[C@@H]1F` (stereo partly drawn) [Example 112, 3-(2-((1,3-Dioxooctahydro-2H-4,7-methanoisoindol-2-yl)methyl)thieno[3,2-b]pyridin-7-yl)-4-(((3R,4S)-4-fluoropyrrolidin-3-yl)oxy)-5-methylbenzonitrile], the IC50 was < 1000 nM.

As for `Cc1cc(Cl)cc(-c2ncnc3cc(CN4C(=O)CCC4=O)sc23)c1O[C@@H]1CNC[C@@H]1F` [Example 113, 1-((4-(5-Chloro-2-(((3R,4S)-4-fluoropyrrolidin-3-yl)oxy)-3-methylphenyl)thieno[3,2-d]pyrimidin-6-yl)methyl)pyrrolidine-2,5-dione], the IC50 fell in the range of 1000 to 10000 nM. Then `Cc1cc(C#N)cc(-c2ccnc3cc(CN4C(=O)CCS4(=O)=O)sc23)c1O[C@@H]1CNC[C@@H]1F` [Example 114, 3-(2-((1,1-Dioxido-3-oxoisothiazolidin-2-yl)methyl)thieno[3,2-b]pyridin-7-yl)-4-(((3R,4S)-4-fluoropyrrolidin-3-yl)oxy)-5-methylbenzonitrile], with < 1000 nM.

`Cc1cc(C#N)cc(-c2ccnc3cc(COC4=NS(=O)(=O)CC4)sc23)c1O[C@@H]1CNC[C@@H]1F` [Example 115, 3-(2-(((1,1-Dioxido-4,5-dihydroisothiazol-3-yl)oxy)methyl)thieno[3,2-b]pyridin-7-yl)-4-(((3R,4S)-4-fluoropyrrolidin-3-yl)oxy)-5-methylbenzonitrile]: the IC50 was 1000 to 10000 nM.

Consider `Cc1cc(Cl)cc(-c2ccnc3cc(CN4C(=O)CCC4=O)sc23)c1O[C@@H]1CN[C@H](CO)C1` [Example 116, 1-((7-(5-Chloro-2-(((3S,5S)-5-(hydroxymethyl)pyrrolidin-3-yl)oxy)-3-methylphenyl)thieno[3,2-b]pyridin-2-yl)methyl)pyrrolidine-2,5-dione], for which the half-inhibitory concentration (IC50) is < 1000 nM.

As for `Cc1cc(Cl)cc(-c2ccnc3cc([C@H](C)N4C(=O)CCC4=O)sc23)c1O[C@@H]1CNC[C@@H]1F` [Example 117, 1-((S)-1-(7-(5-Chloro-2-(((3R,4S)-4-fluoropyrrolidin-3-yl)oxy)-3-methylphenyl)thieno[3,2-b]pyridin-2-yl)ethyl)pyrrolidine-2,5-dione], the half-maximal inhibitory concentration (IC50) is < 1000 nM. In the case of `Cc1cc(Cl)cc(-c2ccnc3cc(CN4C(=O)CCC4=O)sc23)c1OC1CCNC1C` (stereo not shown) [Example 118, 1-((7-(5-Chloro-3-methyl-2-((2-methylpyrrolidin-3-yl)oxy)phenyl)thieno[3,2-b]pyridin-2-yl)methyl)pyrrolidine-2,5-dione], the IC50 is < 1000 nM. Then `O=C1CCC(=O)N1Cc1cc2nccc(-c3cc(Cl)ccc3O[C@@H]3CNC[C@@H]3F)c2s1` [Example 119, 1-((7-(5-Chloro-2-(((3R,4S)-4-fluoropyrrolidin-3-yl)oxy)phenyl)thieno[3,2-b]pyridin-2-yl)methyl)pyrrolidine-2,5-dione], with 1000 to 10000 nM.
